Assay results from US20130199313A1, “METHOD FOR EVALUATING THE SOLUBILITY OF A CRYSTALLINE SUBSTANCE IN A POLYMER” (Abbott GmbH & Co, KGW, priority 2010, published 2013).

Assays:
[1] = Flory-Huggins fit of solute activity from annealing-method solubility data (interaction parameter χ); type: physicochemical; conditions: polymer PVP K-12, Flory-Huggins fit
Protocol: The solute activity a1 of the drug in the saturated solution was calculated from the solubility of the crystalline drug in the polymer as follows:
In a1=(ΔHm/R)(1/Tm−1/T) (1)
where Tm is the melting point of the pure drug, ΔHm is its molar heat of melting, and T is the temperature at which the drug's solubility is measured (or its depressed melting point). […] According to the Flory-Huggins theory, the solute activity is given by
where v1 and v2 are the solute (drug) and solvent (polymer) volume fractions (v1+v2=1), x is the molar volume ratio of the polymer and the drug, and χ□ is the solute-solvent interaction parameter.
To the extent the reasonable fitting in FIG. 4 justifies the use of the Flory-Huggins model, the interaction parameter χ (equation 1) could be obtained.

[2] = polymer PVP K-12; cited from earlier work
[3] = Annealing/DSC method for solubility of a crystalline substance in a polymer; type: physicochemical; conditions: 40 and 50% w/w IMC in PVP/VA, annealing vs scanning method
Protocol: Solute-polymer mixtures of desired concentrations were prepared by weighing the components. […] In a typical procedure, 0.5-1 g solute/polymer powder was milled at 10 Hz. Each cycle of milling was 2 min, followed by a 2 min cool-down. The cycle was repeated to achieve a desired milling time (2-60 min).
For annealing, 5-10 mg of sample was packed into a Tzero hermetic aluminum pan with three pin holes made in the lid to allow the escape of moisture and held isothermally at a desired temperature for as long as 600 minutes. Shorter annealing time was used if the system could apparently achieve equilibrium sooner.
Differential scanning calorimetry (DSC) was conducted using a TA Instruments DSC Q2000 at 10° C./min to determine whether residual crystals remain after annealing, i.e. whether a dissolution endotherm can be identified.

## COc1ccc2c(c1)c(CC(=O)O)c(C)n2C(=O)c1ccc(Cl)cc1 [IMC, indomethacin]
[1]
  solute-solvent interaction parameter χ as determined with the method of the present invention: −8.2 ± 0.6
[2]
  solute-solvent interaction parameter χ as determined by Marsac et al.: −0.82
[3]
  solution temperature below that obtained with the scanning method: approximately 7 °C
